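In this assay, cells in 96-well plates receive the compound at five concentrations for 48 hours. Endpoints are linearly interpolated between the surrounding concentrations. GI50 is the concentration that inhibits growth by half. TGI: total growth inhibition.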 Where a SMILES comes first, the peptide text is derived from it. [ ]: non-standard residue; d: D form. The star is where a group is joined. mTyr = N[CH](Cc1cccc(O)c1)C(=O)O; Cbz = O=C(OCc1ccccc1)*; OBn = c1ccc(CO*)cc1
Key:
Assay in all cases: NCI anticancer screen, dose series, 48 h
A549 NSCLC = tested on: A549 NSCLC
CAKI-1 renal = tested on: CAKI-1 renal
COLO 205 colon = tested on: COLO 205 colon
LOX IMVI melanoma = tested on: LOX IMVI melanoma
NCI-H522 lung = tested on: NCI-H522 lung
NCI/ADR-RES ovarian = tested on: NCI/ADR-RES ovarian
OVCAR-4 ovarian = tested on: OVCAR-4 ovarian
SF-268 CNS = tested on: SF-268 CNS
SF-295 CNS = tested on: SF-295 CNS
SK-MEL-28 melanoma = tested on: SK-MEL-28 melanoma
SK-MEL-5 melanoma = tested on: SK-MEL-5 melanoma
SNB-19 CNS = tested on: SNB-19 CNS
SNB-75 CNS = tested on: SNB-75 CNS
SR leukemia = tested on: SR leukemia
TK-10 renal = tested on: TK-10 renal
U251 CNS = tested on: U251 CNS
NCI-H460 lung = tested on: NCI-H460 lung

Structure (SMILES)	TGI (A549 NSCLC)	TGI (CAKI-1 renal)	TGI (COLO 205 colon)	TGI (LOX IMVI melanoma)	TGI (NCI-H522 lung)	TGI (NCI/ADR-RES ovarian)	TGI (OVCAR-4 ovarian)	TGI (SF-268 CNS)	TGI (SF-295 CNS)	TGI (SK-MEL-28 melanoma)	TGI (SK-MEL-5 melanoma)	TGI (SNB-19 CNS)	TGI (SNB-75 CNS)	TGI (SR leukemia)	TGI (TK-10 renal)	TGI (U251 CNS)	TGI (NCI-H460 lung)	GI50 (A549 NSCLC)	GI50 (COLO 205 colon)
O=c1onc2c3ccccc3ncn12	> 100 µM	> 100 µM	> 100 µM	> 100 µM	> 100 µM	> 100 µM	> 100 µM	> 100 µM	> 100 µM	> 100 µM	> 100 µM	> 100 µM	> 100 µM	> 100 µM	> 100 µM	> 100 µM	–	–	–
CCC1(COC(NC(=O)c2ccccc2)(C(F)(F)F)C(F)(F)F)COC1	> 100 µM	> 100 µM	> 100 µM	> 100 µM	–	> 100 µM	–	> 100 µM	–	> 100 µM	> 100 µM	> 100 µM	> 100 µM	> 100 µM	> 100 µM	> 100 µM	–	–	–
COC(=O)C1=C(C)N2[C@H](C(=O)O)CO[C@@]2(C)[C@H](C(=O)OC)[C@H]1c1cccc([N+](=O)[O-])c1	> 100 µM	> 100 µM	> 100 µM	–	> 100 µM	> 100 µM	> 100 µM	> 100 µM	> 100 µM	> 100 µM	> 100 µM	> 100 µM	> 100 µM	> 100 µM	> 100 µM	> 100 µM	> 100 µM	–	–
C=CCOC(=O)C1C2OC3(C(C(=O)OC)=C2C(=O)OC)c2ccccc2CCC13 (stereo unspecified)	> 10 µM	> 10 µM	> 10 µM	> 10 µM	–	> 10 µM	> 10 µM	> 10 µM	> 10 µM	> 10 µM	> 10 µM	> 10 µM	–	> 10 µM	> 10 µM	> 10 µM	> 10 µM	–	–
COc1ccc(N=C2C(=Nc3ccc(OC)cc3)N(c3ccccc3)C(=S)N2N=C=C2Sc3ccccc3N2C)cc1	> 100 µM	> 100 µM	> 100 µM	–	> 100 µM	> 100 µM	–	> 100 µM	> 100 µM	> 100 µM	> 100 µM	> 100 µM	–	> 100 µM	> 100 µM	> 100 µM	> 100 µM	–	–
O=C(Nc1cccc(F)c1)c1cc2ccc(O)cc2oc1=Nc1ccccc1F	13.8 µM	15 µM	41.7 µM	7.15 µM	10.3 µM	10.3 µM	26.8 µM	15.4 µM	23.6 µM	18 µM	9.57 µM	21 µM	–	39.5 µM	–	13.4 µM	> 100 µM	–	–
CCNC1=C(NC(=O)CC)C(=O)c2ccccc2C1=O	> 100 µM	–	> 100 µM	–	> 100 µM	> 100 µM	> 100 µM	> 100 µM	> 100 µM	> 100 µM	> 100 µM	> 100 µM	> 100 µM	> 100 µM	> 100 µM	> 100 µM	> 100 µM	–	–
Cc1ccc(/C(O)=C/C(=O)C(=O)NN=C(c2ccccc2)c2ccccc2)cc1	> 100 µM	> 100 µM	> 100 µM	> 100 µM	–	> 100 µM	> 100 µM	> 100 µM	> 100 µM	> 100 µM	> 100 µM	> 100 µM	> 100 µM	> 100 µM	> 100 µM	> 100 µM	> 100 µM	–	–
Cc1ccc2nc(NC(=O)/C(Cc3nc4ccc(Cl)cc4[nH]c3=O)=N\NC(C)(C)C)sc2c1	> 100 µM	89.7 µM	> 100 µM	> 100 µM	–	> 100 µM	> 100 µM	> 100 µM	> 100 µM	> 100 µM	–	> 100 µM	83.1 µM	> 100 µM	–	> 100 µM	> 100 µM	–	–
COC(=O)C1=C(OC(=O)c2ccccc2)C(C(=O)OC)[C@]2(O)[C@@H](C(=O)OC)[C@H]1C[C@@H](c1ccccc1)[C@@H]2C(=O)OC (stereo partly specified)	34.5 µM	> 100 µM	21.8 µM	26.7 µM	–	14.1 µM	> 100 µM	36.8 µM	36.7 µM	76.3 µM	17.4 µM	41.7 µM	–	31.3 µM	69.9 µM	20.8 µM	42.4 µM	–	–
CCOP(=O)(OCC)C(C)(CC)NC (stereo unspecified)	> 100 µM	> 100 µM	> 100 µM	> 100 µM	> 100 µM	> 100 µM	> 100 µM	> 100 µM	> 100 µM	> 100 µM	> 100 µM	> 100 µM	> 100 µM	–	> 100 µM	> 100 µM	> 100 µM	–	–
COC(=O)c1c(O)ccc2c1C1(Cc3ccccc3C1=O)C(O)O2 (stereo unspecified)	69.9 µM	61.8 µM	> 100 µM	> 100 µM	18.1 µM	> 100 µM	35.8 µM	51.6 µM	> 100 µM	> 100 µM	> 100 µM	> 100 µM	–	25.3 µM	52.6 µM	61.4 µM	> 100 µM	–	–
O[C@H]1[C@H](O)[C@@H](O)[C@@]2(O)C[C@@H](O)[C@@H]1N2	> 100 µM	–	> 100 µM	> 100 µM	> 100 µM	> 100 µM	> 100 µM	> 100 µM	> 100 µM	> 100 µM	> 100 µM	> 100 µM	> 100 µM	> 100 µM	> 100 µM	> 100 µM	> 100 µM	–	–
CC(C)CN=C(N)N=C(N)N	> 100 µM	–	> 100 µM	> 100 µM	> 100 µM	> 100 µM	> 100 µM	> 100 µM	> 100 µM	> 100 µM	> 100 µM	> 100 µM	> 100 µM	> 100 µM	> 100 µM	> 100 µM	> 100 µM	–	–
COc1ccc2c(c1)CCN1CCc3cc(OC)c(OC)cc3CC21 (stereo unspecified)	> 100 µM	> 100 µM	> 100 µM	> 100 µM	> 10 µM	> 100 µM	> 100 µM	> 100 µM	> 100 µM	> 100 µM	–	> 100 µM	> 100 µM	> 100 µM	> 100 µM	> 100 µM	–	–	–
O=C(N/N=C/c1cc(Cl)cc(Cl)c1O)c1ccccc1O	15.8 µM	–	> 100 µM	24.9 µM	3.18 µM	–	–	30.8 µM	11.3 µM	25.2 µM	5.38 µM	43.7 µM	22.5 µM	> 100 µM	70.3 µM	18.4 µM	18.8 µM	1.45 µM	11.2 µM
CCOC(=O)CSc1nnc(C(Sc2nc(-c3ccccc3)c(-c3ccccc3)[nH]2)C(C)C)n1-c1ccccc1 (stereo unspecified)	> 31.6 µM	–	28.6 µM	19.9 µM	26.9 µM	84 µM	28.5 µM	> 31.6 µM	> 10 µM	29 µM	> 10 µM	> 31.6 µM	> 10 µM	> 89.6 µM	> 31.6 µM	> 10 µM	> 31.6 µM	–	–
COc1ccc(CSc2ccccc2Cn2cccc2)cc1OC	> 100 µM	> 100 µM	> 100 µM	> 100 µM	–	> 100 µM	> 100 µM	> 100 µM	> 100 µM	> 100 µM	> 100 µM	> 100 µM	> 100 µM	> 100 µM	> 100 µM	> 100 µM	> 100 µM	–	–
CSCCC(NC(=O)Cc1ccc(C(=O)c2ccccc2)cc1)C(=O)O (stereo unspecified)	> 100 µM	> 100 µM	> 100 µM	> 100 µM	> 100 µM	> 100 µM	> 100 µM	> 100 µM	> 100 µM	> 100 µM	> 100 µM	> 100 µM	> 100 µM	–	> 100 µM	> 100 µM	> 100 µM	–	–
COC(=O)C(Cc1cccc(O)c1)NC(=O)C(CC(=O)OCc1ccccc1)NC(=O)OCc1ccccc1 (stereo unspecified) (Cbz-Asp(OBn)-[mTyr]-OMe; configuration not given here)	> 100 µM	–	> 100 µM	–	–	–	–	–	–	> 100 µM	> 100 µM	> 100 µM	> 100 µM	> 100 µM	> 100 µM	> 100 µM	35.6 µM	–	–
COC(=O)c1cnn2c1n[n+]([O-])c1ccccc12	> 100 µM	> 100 µM	> 100 µM	> 100 µM	> 100 µM	> 100 µM	–	> 100 µM	> 100 µM	> 100 µM	> 100 µM	–	> 100 µM	> 100 µM	> 100 µM	> 100 µM	–	–	–
COc1cccc(NC(=O)C(C#N)=C(SC)SC)c1	> 100 µM	> 100 µM	> 100 µM	> 100 µM	> 100 µM	> 100 µM	> 100 µM	> 100 µM	> 100 µM	> 100 µM	> 100 µM	> 100 µM	> 100 µM	–	> 100 µM	> 100 µM	> 100 µM	–	–
COc1ccc2oc(=N)c(C(=O)Nc3ccccn3)cc2c1	> 100 µM	> 100 µM	> 100 µM	> 100 µM	–	> 100 µM	> 100 µM	> 100 µM	–	> 100 µM	> 100 µM	> 100 µM	> 100 µM	> 100 µM	–	> 100 µM	> 100 µM	–	–

— PubChem BioAssay (NCI)
